Source: patent US8999664B2, “Method of improving salmon meat color” (JX Nippon Oil & Energy Corporation, priority 2006, dated 2015)

How the values were obtained:
Format in all cases: in vivo
[1] = test system: Atlantic salmons (Salmo salar); experiment: Cultivation of Atlantic salmon with carotenoid feed: fish weight and flesh color by spectrometer
From the text: The flesh color of a landed salmon can be quantified with the L*a*b* color system by measuring the color using a spectrometer. L* represents the luminance, a* represents the chroma red, and b* represents chroma yellow. A higher value of a*/b* represents a color more reddish than orangish, and a lower value of a*/b* represents a color more orangish than reddish. […] 400 Atlantic salmons (Salmo salar) each weighing about 300 g were cultivated as a test division of being fed with the above-described fermented product, and another 400 Atlantic salmons each weighing about 300 g were cultivated as a test division of being fed with the above-described synthetic product. The salmons were fed in satiation in a marine fish pen for 12 months. After the 12 months of cultivating, 20 fish of each test division were landed and weighed. […] The fish were immediately killed by cutting medulla, and the fish flesh was measured in terms of the color tone by a spectrometer. […] After the measurement, the fish flesh was frozen for preservation for 1 month. After being thawed, the fish flesh of the 20 fish of each test division was analyzed in terms of the content of each carotenoid compound.

[2] = test system: silver salmons (Oncorhynchus kisutch); experiment: Cultivation of silver salmon with carotenoid feed: fish weight and flesh color by spectrometer
From the text: The flesh color of a landed salmon can be quantified with the L*a*b* color system by measuring the color using a spectrometer. L* represents the luminance, a* represents the chroma red, and b* represents chroma yellow. A higher value of a*/b* represents a color more reddish than orangish, and a lower value of a*/b* represents a color more orangish than reddish. […] 300 silver salmons (Oncorhynchus kisutch) each weighing about 200 g were cultivated as a test division of being fed with the above-described fermented product, and another 300 silver salmons each weighing about 200 g were cultivated as a test division of being fed with the above-described synthetic product. The salmons were fed in satiation in a marine fish pen for 6 months. After the 6 months of cultivating, 10 fish of each test division were weighed. […] The fish were immediately killed by cutting medulla and frozen for preservation. After being thawed, the fish flesh was milled by a coffee mill, and a part thereof was put into a polyethylene bag to measure the color tone thereof by a spectrometer CM-508i (Minolta). […] From a part of the milled fish flesh, the carotenoid colorant was extracted, and analyzed in terms of the content of each carotenoid compound by HPLC.

[3] = test system: king salmons (Oncorhynchus tshawytscha); experiment: Cultivation of king salmon with carotenoid feed: fish weight and flesh color by spectrometer
From the text: The flesh color of a landed salmon can be quantified with the L*a*b* color system by measuring the color using a spectrometer. L* represents the luminance, a* represents the chroma red, and b* represents chroma yellow. A higher value of a*/b* represents a color more reddish than orangish, and a lower value of a*/b* represents a color more orangish than reddish. […] 100 king salmons (Oncorhynchus tshawytscha) each weighing about 200 g were cultivated as a test division of being fed with the above-described fermented product, and another 100 king salmons each weighing about 200 g were cultivated as a test division of being fed with the above-described synthetic product. The salmons were fed in satiation in a marine fish pen for 3 months. After the 3 months of cultivating, 15 fish of each test division were sampled and weighed. […] The fish were immediately killed by cutting medulla. […] After the measurement, the fish flesh was frozen for preservation for 1 month. After being thawed, the fish flesh of the fish of each test division was analyzed in terms of the content of each carotenoid compound.

[4] = test system: rainbow trouts (Oncorhynchus mykiss); experiment: Cultivation of rainbow trout with carotenoid feed: fish weight and flesh color by spectrometer
From the text: The flesh color of a landed salmon can be quantified with the L*a*b* color system by measuring the color using a spectrometer. L* represents the luminance, a* represents the chroma red, and b* represents chroma yellow. A higher value of a*/b* represents a color more reddish than orangish, and a lower value of a*/b* represents a color more orangish than reddish. […] 50 rainbow trouts (Oncorhynchus mykiss) each weighing about 100 g were cultivated in a water tank as a test division of being fed with the above-described fermented product, and another 50 rainbow trouts each weighing about 100 g were cultivated in a water tank as a test division of being fed with the above-described synthetic product. The trouts of each test division were fed in satiation in fresh water for 3 months. After the 3 months of cultivating, 12 fish of each test division were weighed. […] The fish were immediately killed by cutting medulla. […] After the measurement, the fish flesh was frozen for preservation. After being thawed, the fish flesh of the 12 fish of each test division was analyzed in terms of the content of each carotenoid compound.

[5] = flesh color tone by spectrometer, 12 months, average of 20 fish
[6] = milled thawed fish flesh, spectrometer CM-508i, 6 months, average of 10 fish
[7] = flesh color by spectrometer, 3 months, average of 15 fish
[8] = flesh color by spectrometer, 3 months, average of 12 fish

SMILES: CC1=C(/C=C/C(C)=C/C=C/C(C)=C/C=C/C=C(C)/C=C/C=C(C)/C=C/C2=C(C)C(=O)[C@@H](O)CC2(C)C)C(C)(C)C[C@H](O)C1=O [Synthetic product, astaxanthin]
- Fish flesh color exhibited ([1]; 12 months of cultivating): reddish orange color with a high level of chroma red
- L* value (luminance) [1, 5]: 50.0
- a* value (chroma red) [1, 5]: 26.2
- a*/b* [1, 5]: 0.94
- b* value (chroma yellow) [1, 5]: 27.9
- Fish flesh color exhibited ([2]; 6 months of cultivating): unnatural red color
- L* value (luminance) [2, 6]: 55.6
- a* value (chroma red) [2, 6]: 26.0
- b* value (chroma yellow) [2, 6]: 26.2
- a*/b* ([2]; milled thawed fish flesh, spectrometer, 6 months, average of 10 fish): 0.99
- Fish flesh color exhibited ([3]; 3 months of cultivating): reddish orange color close to a red color
- L* value (luminance) [3, 7]: 50.8
- a* value (chroma red) [3, 7]: 23.7
- a*/b* [3, 7]: 0.93
- b* value (chroma yellow) [3, 7]: 25.5
- Fish flesh color exhibited ([4]; 3 months of cultivating): reddish orange color close to a red color
- L* value (luminance) [4, 8]: 41.8
- a* value (chroma red) [4, 8]: 9.1
- a*/b* [4, 8]: 0.66
- b* value (chroma yellow) [4, 8]: 13.8
